Experiments:
MDA-MB-231 [1] = assay: Inhibition of cell invasion in human MDA-MB-231 cells incubated for 24 hrs by crystal violet staining based transwell assay; assay type: functional; conditions: dose 82.5-330 nM
MDA-MB-231 [2] = assay: Induction of DNA damage in human MDA-MB-231 cells assessed as tail DNA at 82.5 nM incubated for 48 hrs by Comet assay (reference value: 0.007 %); assay type: functional
Cell membrane [3] = assay: Induction of mitochondrial membrane potential loss in human MDA-MB-231 cells assessed as proportion of MMP decreased cells at 0.165 uM and measured for 48 hrs by JC-1 staining based flow cytometry assay (reference value: 4.40%); assay type: subcellular; parameters: scale not given: the % may be the effect or the level left
MDA-MB-231 [4] = assay: Induction of apoptosis in human MDA-MB-231 cells assessed as late apoptotic cells at 82.5 nM incubated for 48 hrs by Annexin-V/FITC-PI staining based flow cytometry analysis (reference value: 2.34 %); assay type: functional
Cell membrane [5] = assay: Induction of mitochondrial membrane potential loss in human MDA-MB-231 cells assessed as proportion of MMP decreased cells at 0.33 uM and measured for 48 hrs by JC-1 staining based flow cytometry assay (reference value: 4.40%); assay type: subcellular; parameters: scale not given: the % may be the effect or the level left
MDA-MB-231 [6] = assay: Induction of apoptosis in human MDA-MB-231 cells assessed as viable cells at 0.33 uM incubated for 48 hrs by Annexin-V/FITC-PI staining based flow cytometry analysis (reference value: 93.74 %); assay type: functional; conditions: read-out: Activity
HepG2 = assay: Antiproliferative activity against human HepG2 cells assessed as reduction in cell viability incubated for 48 hrs by CCk-8 assay; assay type: functional, cell-based; conditions: HepG2, 48 h
MDA-MB-231 [7] = assay: Induction of apoptosis in human MDA-MB-231 cells assessed as early apoptotic cells at 0.33 uM incubated for 48 hrs by Annexin-V/FITC-PI staining based flow cytometry analysis (reference value: 2.93 %); assay type: functional
MDA-MB-231 [8] = assay: Induction of apoptosis in human MDA-MB-231 cells assessed as necrotic cells at 0.165 uM incubated for 48 hrs by Annexin-V/FITC-PI staining based flow cytometry analysis (reference value: 0.99 %); assay type: functional
A549 = assay: Antiproliferative activity against human A549 cells assessed as reduction in cell viability incubated for 48 hrs by CCk-8 assay; assay type: functional, cell-based; conditions: A549, 48 h
MDA-MB-231 [9] = assay: Induction of apoptosis in human MDA-MB-231 cells assessed as necrotic cells at 0.33 uM incubated for 48 hrs by Annexin-V/FITC-PI staining based flow cytometry analysis (reference value: 0.99 %); assay type: functional

- Activity (Cell membrane [3]): 31.7%
- Activity (Cell membrane [5]): 49.8%
- IC50 (HepG2): 750 nM
- IC50 (A549): 580 nM
SMILES: C[C@H]1CCC/C=C/[C@@H]2C[C@H](O)C[C@H]2[C@H](OC(=O)CCCC(=O)OCCOc2ccc(-c3cc(=S)ss3)cc2)/C=C/C(=O)O1
- inhibition (MDA-MB-231 [1]): Dose-Dependent Effect
- Activity (MDA-MB-231 [2]): 20.49%
- Activity (MDA-MB-231 [4]): 5.82%
- viability at 0.33 µM (MDA-MB-231 [6]): 43.2%
- Activity (MDA-MB-231 [7]): 21.05%
- Activity (MDA-MB-231 [8]): 1.87%
- Activity (MDA-MB-231 [9]): 4.11%

Source: ChEMBL document CHEMBL5325456, “5-(4-Hydroxyphenyl)-3H-1,2-dithiole-3-thione derivatives of brefeldin A: Design, synthesis and cytotoxicity in MDA-MB-231 human breast cancer cells” (Bioorg Med Chem, 2023)
